# Source: BindingDB's records for doi:10.7270/Q2K072NW (Sanford-Burnham Center for Chemical Genomics, 2008)
# Biological target: T1, Bcl-2-related protein A1 (Mus musculus, UniProt Q07440)
# T1 sequence (Q07440 whole entry): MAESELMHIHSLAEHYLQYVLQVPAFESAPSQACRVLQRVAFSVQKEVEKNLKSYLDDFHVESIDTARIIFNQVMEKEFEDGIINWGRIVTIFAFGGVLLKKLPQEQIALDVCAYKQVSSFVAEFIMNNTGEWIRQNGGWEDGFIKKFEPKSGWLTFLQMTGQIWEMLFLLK
# Test: Bfl-1 inhibitors blocking BH3 peptide binding, confirmation, biochemical, TR-FRET, mouse Bfl-1 (AID 621)
row,IC50,Compound
1,73.7 µM,Oc1c(Cl)c(N=Cc2ccccc2)c(O)n1-c1ccc(Cl)c(Cl)c1 [MLS-0067125.0001]
2,> 100 µM,c1ccc(-c2ccc(C3=Nc4ncnn4C(c4ccco4)C3)cc2)cc1 (configuration not stated)
3,4.96 µM,"COCC=Nc1c(Cl)c(O)n(-c2ccc(Cl)c(Cl)c2)c1O [3-chloranyl-1-(3,4-dichlorophenyl)-4-(2-methoxyethylamino)pyrrole-2,5-dione]"
4,> 100 µM,"CN1CCC2=C(C#N)C(=N)C(C#N)(C#N)C(c3cccc(Cl)c3Cl)C2C1 (configuration not stated) [6-azanyl-8-[2,3-bis(chloranyl)phenyl]-2-methyl-1,3,8,8a-tetrahydroisoquinoline-5,7,7-tricarbonitrile]"
5,> 100 µM,"OCCCc1nc2n(n1)C(c1cccs1)CC(c1ccccc1)=N2 (configuration not stated) [3-(5-phenyl-7-thiophen-2-yl-1,7-dihydro-[1,2,4]triazolo[1,5-a]pyrimidin-2-yl)-1-propanol]"
6,2.54 µM,"Cc1ccc(N=C2C(=O)N(c3ccc(C)cc3)C(=O)C2Cl)cc1 (configuration not stated) [3-chloranyl-1-(4-methylphenyl)-4-[(4-methylphenyl)amino]pyrrole-2,5-dione]"

# The remaining lines, values behind:
row,Compound,IC50
1,"O=C1C(=Nc2ccc(F)cc2)C(Cl)C(=O)N1c1ccc(Cl)c(Cl)c1 (configuration not stated) [3-chloranyl-1-(3,4-dichlorophenyl)-4-[(4-fluorophenyl)amino]pyrrole-2,5-dione]",96.5 µM
2,"CCCN1CCC2=C(C#N)C(=N)C(C#N)(C#N)C(c3cccc(OC)c3OC)C2C1 (configuration not stated) [6-amino-8-(2,3-dimethoxyphenyl)-2-propyl-1,3,8,8a-tetrahydroisoquinoline-5,7,7-tricarbonitrile]",> 100 µM
3,"CN1CCC2=C(C#N)C(=N)C(C#N)(C#N)[C@H](c3cccc(Cl)c3)C2C1 (stereo partly drawn) [(8S)-6-amino-8-(3-chlorophenyl)-2-methyl-1,3,8,8a-tetrahydroisoquinoline-5,7,7-tricarbonitrile]",> 100 µM
4,Cc1ccc(C2C3CN(C(C)C)CCC3=C(C#N)C(=N)C2(C#N)C#N)cc1 (configuration not stated) [SMR000034220],> 100 µM
5,O=C1C(=O)N(c2ncccn2)C(c2cccc(Cl)c2)C1C(=O)c1ccco1 (configuration not stated) [2-(3-chlorophenyl)-3-(furan-2-carbonyl)-4-hydroxy-1-pyrimidin-2-yl-2H-pyrrol-5-one],> 100 µM
6,"COc1ccc(N2C(=O)C(=Nc3c(C)n(C)n(-c4ccccc4)c3=O)C(Cl)C2=O)cc1 (configuration not stated) [3-chloranyl-4-[(1,5-dimethyl-3-oxidanylidene-2-phenyl-pyrazol-4-yl)amino]-1-(4-methoxyphenyl)pyrrole-2,5-dione]",> 100 µM
